Source: ChEMBL document CHEMBL4152293, “Synthesis and biological evaluation of podophyllotoxin derivatives as selective antitumor agents” (Eur J Med Chem, 2018)
Calls of active or inactive are those of the source. The calls are words filed in the database; no cut-off is given here.

Key:
MCF7 = assay: Cytotoxicity against human MCF7 cells assessed as growth inhibition after 72 hrs by MTT assay; type: functional, cell-based; settings: MCF7, 72 h
HepG2 = assay: Cytotoxicity against human HepG2 cells assessed as growth inhibition after 72 hrs by MTT assay; type: functional, cell-based; settings: HepG2, 72 h
L02 [1] = assay: Cytotoxicity against human L02 cells assessed as growth inhibition after 72 hrs by MTT assay; type: cell-based; settings: L02, 72 h
A549 [2] = assay: Induction of morphological changes in nucleus of human A549 cells at 10 to 30 nM after 72 hrs by DAPI staining-based fluorescence microscopic method; type: functional, cell-based
A549 [3] = assay: Induction of apoptosis in human A549 cells assessed as late apoptotic cells at 10 nM after 72 hrs by annexin V-FITC/propidium iodide staining-based flow cytometric method (reference value: 4.1%); type: functional
A549 [4] = assay: Induction of apoptosis in human A549 cells assessed as necrotic cells at 10 nM after 72 hrs by annexin V-FITC/propidium iodide staining-based flow cytometric method (reference value: 0.1%); type: functional
A549 [5] = assay: Induction of apoptosis in human A549 cells assessed as viable cells at 10 nM after 72 hrs by annexin V-FITC/propidium iodide staining-based flow cytometric method (reference value: 92.8%); type: functional; settings: A549, 72 h, read-out: Activity
A549 [6] = assay: Induction of apoptosis in human A549 cells assessed as early apoptotic cells at 100 nM after 72 hrs by annexin V-FITC/propidium iodide staining-based flow cytometric method (reference value: 3%); type: functional
L02 [7] = assay: Induction of apoptosis in human L02 cells assessed as necrotic cells at 10 nM after 72 hrs by annexin V-FITC/propidium iodide staining-based flow cytometric method (reference value: 0%); type: cell-based; settings: l02, 72 h, 0.01 µM
[8] = Induction of apoptosis in human L02 cells assessed as viable cells at 100 nM after 72 hrs by annexin V-FITC/propidium iodide staining-based flow cytometric method (reference value: 96.3%); type: cell-based; settings: read-out: Activity
L02 [9] = assay: Induction of apoptosis in human L02 cells assessed as late apoptotic cells at 200 nM after 72 hrs by annexin V-FITC/propidium iodide staining-based flow cytometric method (reference value: 1.6%); type: cell-based; settings: l02, 72 h, 0.2 µM
A549 [10] = assay: Cell cycle arrest in human A549 cells assessed as accumulation at G2/M phase at 5 nM after 72 hrs by propidium iodide staining-based flow cytometric method (reference value: 14.23%); type: functional
L02 [11] = assay: Cell cycle arrest in human L02 cells assessed as accumulation at S phase at 5 nM after 72 hrs by propidium iodide staining-based flow cytometric method (reference value: 25.78%); type: ADME; settings: l02, 72 h, 0.005 µM
L02 [12] = assay: Cell cycle arrest in human L02 cells assessed as accumulation at G0/G1 phase at 10 nM after 72 hrs by propidium iodide staining-based flow cytometric method (reference value: 57.34%); type: ADME; settings: l02, 72 h, 0.01 µM
L02 [13] = assay: Cell cycle arrest in human L02 cells assessed as accumulation at G2/M phase at 10 nM after 72 hrs by propidium iodide staining-based flow cytometric method (reference value: 16.88%); type: ADME; settings: l02, 72 h, 0.01 µM
L02 [14] = assay: Cell cycle arrest in human L02 cells assessed as accumulation at G2/M phase at 100 nM after 72 hrs by propidium iodide staining-based flow cytometric method (reference value: 16.88%); type: ADME; settings: l02, 72 h, 0.1 µM

COc1cc([C@@H]2c3cc4c(cc3[C@H](OC(=O)CN(C)C(=O)OC(C)(C)C)[C@H]3COC(=O)[C@H]23)OCO4)cc(OC)c1OC
IC50 (MCF7): 133 nM | IC50 (HepG2): 96.4 nM | IC50 (L02 [1]): 160 nM | Activity (A549 [2]): Active | Activity (A549 [3]): 8.1% | Activity (A549 [4]): 0% | viability at 0.01 µM (A549 [5]): 87.8% | Activity (A549 [6]): 84.6% | Activity (L02 [7]): 0% | viability at 72 h, 0.1 µM [8]: 87.3% | Activity (L02 [9]): 3.1% | Activity (A549 [10]): 13.74% | Activity (L02 [11]): 24.04% | Activity (L02 [12]): 62.3% | Activity (L02 [13]): 13.11% | Activity (L02 [14]): 13.78%
